Test results reported in patent publication US11746087B1, “C4-carboxylic acid-substituted tryptamine derivatives and methods of using” (priority 2022, dated 2023).

Columns and labels:
[1] = biological target: T1, 5-HT2A receptor (Mus musculus, UniProt P35363); experiment: Drug-induced Head Twitch Response (HTR); type: in vivo; settings: C57BL/6 mice; 1 mg/kg i.p.; 15-to-30-minute window after administration
T1 construct: 8-week old C57BL/6-Elite male and female mice were obtained from Charles River; tissue Charles River; host or cells: living C57BL/6-Elite mice (neuronal receptor, in vivo)

[2] = biological target: T2, ADRA1A (Homo sapiens, UniProt P35348); experiment: Calcium secondary messenger assay, agonist mode; type: cell-based
T2 sequence (P35348 1-466): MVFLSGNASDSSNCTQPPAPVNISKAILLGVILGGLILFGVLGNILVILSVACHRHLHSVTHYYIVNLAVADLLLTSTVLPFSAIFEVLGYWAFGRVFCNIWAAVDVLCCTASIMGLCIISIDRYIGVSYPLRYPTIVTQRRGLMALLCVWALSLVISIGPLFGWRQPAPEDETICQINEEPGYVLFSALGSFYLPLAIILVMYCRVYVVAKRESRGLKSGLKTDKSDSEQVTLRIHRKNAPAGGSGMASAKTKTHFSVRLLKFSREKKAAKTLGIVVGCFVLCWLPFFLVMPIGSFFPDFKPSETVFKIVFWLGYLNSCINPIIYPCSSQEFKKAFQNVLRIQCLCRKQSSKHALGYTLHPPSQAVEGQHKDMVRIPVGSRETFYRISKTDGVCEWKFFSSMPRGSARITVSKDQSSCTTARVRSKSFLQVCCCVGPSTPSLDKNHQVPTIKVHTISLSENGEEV

[3] = biological target: T2, ADRA1A; experiment: Calcium secondary messenger assay, antagonist mode; type: cell-based
[4] = biological target: AVPR1A (Homo sapiens, UniProt P37288); experiment: Calcium secondary messenger assay, antagonist mode; type: cell-based
[5] = biological target: T3, CHRM1 (Homo sapiens, UniProt P11229); experiment: Calcium secondary messenger assay, agonist mode; type: cell-based
T3 sequence (P11229 1-460): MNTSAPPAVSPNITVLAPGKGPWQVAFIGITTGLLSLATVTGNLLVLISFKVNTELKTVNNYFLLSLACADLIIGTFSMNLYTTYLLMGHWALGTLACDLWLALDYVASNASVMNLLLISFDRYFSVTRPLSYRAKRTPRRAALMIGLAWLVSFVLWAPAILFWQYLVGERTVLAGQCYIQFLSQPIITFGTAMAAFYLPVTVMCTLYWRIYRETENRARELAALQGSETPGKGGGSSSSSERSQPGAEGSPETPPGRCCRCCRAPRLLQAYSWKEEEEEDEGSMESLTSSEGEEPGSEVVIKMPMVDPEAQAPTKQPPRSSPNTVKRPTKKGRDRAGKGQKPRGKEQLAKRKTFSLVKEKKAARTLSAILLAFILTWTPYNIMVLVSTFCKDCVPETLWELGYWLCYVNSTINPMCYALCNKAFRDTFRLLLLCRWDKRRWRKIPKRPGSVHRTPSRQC

[6] = biological target: T3, CHRM1; experiment: cell-based
[7] = biological target: T4, CHRM2 (Homo sapiens, UniProt P08172); experiment: EFC-based cAMP secondary messenger assay, agonist mode; type: cell-based
T4 sequence (P08172 1-466): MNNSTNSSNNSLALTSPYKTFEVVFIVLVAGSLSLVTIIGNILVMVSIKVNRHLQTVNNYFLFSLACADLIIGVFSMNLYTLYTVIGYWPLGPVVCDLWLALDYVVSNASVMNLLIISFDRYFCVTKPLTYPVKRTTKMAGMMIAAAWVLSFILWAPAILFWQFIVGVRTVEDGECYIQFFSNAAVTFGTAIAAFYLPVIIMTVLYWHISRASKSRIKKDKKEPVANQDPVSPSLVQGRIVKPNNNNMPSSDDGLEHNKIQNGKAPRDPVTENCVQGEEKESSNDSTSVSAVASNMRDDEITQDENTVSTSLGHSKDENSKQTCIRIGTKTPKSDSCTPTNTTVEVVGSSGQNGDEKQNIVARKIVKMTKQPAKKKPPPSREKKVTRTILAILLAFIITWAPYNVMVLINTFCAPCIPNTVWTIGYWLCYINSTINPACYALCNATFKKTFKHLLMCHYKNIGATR

[8] = biological target: T4, CHRM2; experiment: EFC-based cAMP secondary messenger assay, antagonist mode; type: cell-based
[9] = biological target: DRD1 (Homo sapiens, UniProt P21728); experiment: as above; type: cell-based
[10] = biological target: DRD2S (Homo sapiens, UniProt P14416); experiment: EFC-based cAMP secondary messenger assay, agonist mode; type: cell-based
[11] = biological target: T5, HTR1B (5-HTR1B) (Homo sapiens, UniProt P28222); experiment: as above; type: cell-based
[12] = biological target: T5, HTR1B (5-HTR1B); experiment: EFC-based cAMP secondary messenger assay, antagonist mode; type: cell-based
[13] = biological target: OPRD1 (Homo sapiens, UniProt P41143); experiment: EFC-based cAMP secondary messenger assay, agonist mode; type: cell-based
[14] = biological target: T6, MAO-A (Homo sapiens, UniProt P21397); experiment: MAO-A enzyme assay (kynuramine); type: biochemical
T6 construct: purchased Sigma
T6 sequence (P21397 1-527): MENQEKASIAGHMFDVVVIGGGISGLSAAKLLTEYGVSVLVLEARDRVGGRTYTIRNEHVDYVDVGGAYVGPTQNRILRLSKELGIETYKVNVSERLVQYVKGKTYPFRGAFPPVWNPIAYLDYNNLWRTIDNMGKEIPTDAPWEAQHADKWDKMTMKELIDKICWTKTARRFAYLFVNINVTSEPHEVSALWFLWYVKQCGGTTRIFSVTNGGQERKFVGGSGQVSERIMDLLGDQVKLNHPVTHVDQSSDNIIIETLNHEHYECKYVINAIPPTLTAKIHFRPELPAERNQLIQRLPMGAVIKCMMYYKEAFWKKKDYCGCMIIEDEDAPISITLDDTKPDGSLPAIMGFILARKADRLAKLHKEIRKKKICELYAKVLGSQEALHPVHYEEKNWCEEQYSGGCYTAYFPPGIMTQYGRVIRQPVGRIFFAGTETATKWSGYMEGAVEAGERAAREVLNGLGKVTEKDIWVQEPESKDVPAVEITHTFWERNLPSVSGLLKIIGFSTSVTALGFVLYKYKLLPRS

[15] = biological target: NET (Homo sapiens, UniProt P23975); experiment: Neurotransmitter transporter uptake assay, blocker; type: cell-based
[16] = biological target: SERT (Homo sapiens, UniProt P31645); experiment: cell-based; settings: transporter
Sequence of SERT (P31645 whole entry): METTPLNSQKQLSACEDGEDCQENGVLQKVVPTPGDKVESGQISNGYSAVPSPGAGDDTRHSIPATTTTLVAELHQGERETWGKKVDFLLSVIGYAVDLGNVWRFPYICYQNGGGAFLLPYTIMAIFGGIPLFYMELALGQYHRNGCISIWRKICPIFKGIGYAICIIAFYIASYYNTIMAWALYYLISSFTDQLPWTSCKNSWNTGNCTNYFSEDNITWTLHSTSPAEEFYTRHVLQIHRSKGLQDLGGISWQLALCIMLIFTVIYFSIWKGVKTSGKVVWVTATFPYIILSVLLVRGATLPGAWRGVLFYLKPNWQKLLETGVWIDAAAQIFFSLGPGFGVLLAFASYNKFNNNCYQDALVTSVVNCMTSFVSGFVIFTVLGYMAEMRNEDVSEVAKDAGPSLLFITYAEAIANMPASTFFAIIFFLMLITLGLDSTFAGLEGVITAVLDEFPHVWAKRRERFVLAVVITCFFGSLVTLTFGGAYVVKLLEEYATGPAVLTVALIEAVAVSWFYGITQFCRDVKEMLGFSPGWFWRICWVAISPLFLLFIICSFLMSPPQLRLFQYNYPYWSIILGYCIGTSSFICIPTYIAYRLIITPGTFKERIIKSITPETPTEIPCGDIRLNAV

T1 sequence (P35363 whole entry): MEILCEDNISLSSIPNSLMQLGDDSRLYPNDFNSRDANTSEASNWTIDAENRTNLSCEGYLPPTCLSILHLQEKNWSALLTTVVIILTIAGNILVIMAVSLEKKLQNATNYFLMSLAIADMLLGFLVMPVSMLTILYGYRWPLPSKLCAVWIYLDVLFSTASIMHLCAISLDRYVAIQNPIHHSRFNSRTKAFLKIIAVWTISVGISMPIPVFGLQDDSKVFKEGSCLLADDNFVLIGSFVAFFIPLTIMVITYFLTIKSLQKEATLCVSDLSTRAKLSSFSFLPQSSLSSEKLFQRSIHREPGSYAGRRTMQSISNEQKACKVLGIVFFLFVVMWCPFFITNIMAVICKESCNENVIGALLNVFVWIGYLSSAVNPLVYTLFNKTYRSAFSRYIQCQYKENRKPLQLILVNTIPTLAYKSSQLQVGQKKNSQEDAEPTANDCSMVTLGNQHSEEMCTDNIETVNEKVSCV
T5 sequence (P28222 whole entry): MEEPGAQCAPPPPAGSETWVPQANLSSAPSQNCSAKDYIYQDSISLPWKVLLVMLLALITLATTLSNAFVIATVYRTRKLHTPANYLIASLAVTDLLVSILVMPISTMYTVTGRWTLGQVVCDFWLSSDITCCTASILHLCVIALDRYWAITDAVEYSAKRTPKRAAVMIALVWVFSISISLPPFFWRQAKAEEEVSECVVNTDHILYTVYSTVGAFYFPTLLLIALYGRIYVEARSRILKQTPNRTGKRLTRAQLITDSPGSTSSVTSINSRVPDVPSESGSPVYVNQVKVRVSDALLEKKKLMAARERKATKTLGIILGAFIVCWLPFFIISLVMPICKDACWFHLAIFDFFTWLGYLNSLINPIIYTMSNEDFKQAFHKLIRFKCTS
Sequence of OPRD1 (P41143 whole entry): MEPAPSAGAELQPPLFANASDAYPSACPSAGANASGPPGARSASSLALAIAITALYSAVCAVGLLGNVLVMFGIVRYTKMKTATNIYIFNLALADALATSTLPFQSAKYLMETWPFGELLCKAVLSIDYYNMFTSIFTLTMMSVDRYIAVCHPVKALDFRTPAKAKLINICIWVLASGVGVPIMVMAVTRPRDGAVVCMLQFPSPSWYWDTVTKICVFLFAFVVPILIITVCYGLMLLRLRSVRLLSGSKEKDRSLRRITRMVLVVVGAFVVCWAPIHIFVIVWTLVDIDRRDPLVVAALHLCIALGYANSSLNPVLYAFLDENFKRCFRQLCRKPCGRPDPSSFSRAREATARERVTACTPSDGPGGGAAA
Sequence of NET (P23975 whole entry): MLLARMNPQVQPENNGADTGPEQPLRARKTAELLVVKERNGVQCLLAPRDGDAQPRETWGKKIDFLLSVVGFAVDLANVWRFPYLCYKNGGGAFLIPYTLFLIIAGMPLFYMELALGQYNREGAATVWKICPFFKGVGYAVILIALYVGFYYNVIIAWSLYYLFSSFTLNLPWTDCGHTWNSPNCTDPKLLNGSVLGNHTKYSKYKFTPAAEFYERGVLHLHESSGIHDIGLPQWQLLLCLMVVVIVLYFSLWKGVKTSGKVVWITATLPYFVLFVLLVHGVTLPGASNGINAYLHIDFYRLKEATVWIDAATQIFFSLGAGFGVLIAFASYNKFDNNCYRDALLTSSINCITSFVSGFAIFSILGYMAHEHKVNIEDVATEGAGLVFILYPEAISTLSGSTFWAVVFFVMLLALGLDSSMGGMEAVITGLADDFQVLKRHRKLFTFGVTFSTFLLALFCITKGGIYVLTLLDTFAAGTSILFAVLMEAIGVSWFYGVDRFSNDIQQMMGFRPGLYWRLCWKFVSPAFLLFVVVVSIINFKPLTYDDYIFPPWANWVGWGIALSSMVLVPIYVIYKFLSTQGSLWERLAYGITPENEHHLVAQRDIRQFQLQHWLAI
Sequence of DRD2S (P14416 1-414 isoform P14416-2): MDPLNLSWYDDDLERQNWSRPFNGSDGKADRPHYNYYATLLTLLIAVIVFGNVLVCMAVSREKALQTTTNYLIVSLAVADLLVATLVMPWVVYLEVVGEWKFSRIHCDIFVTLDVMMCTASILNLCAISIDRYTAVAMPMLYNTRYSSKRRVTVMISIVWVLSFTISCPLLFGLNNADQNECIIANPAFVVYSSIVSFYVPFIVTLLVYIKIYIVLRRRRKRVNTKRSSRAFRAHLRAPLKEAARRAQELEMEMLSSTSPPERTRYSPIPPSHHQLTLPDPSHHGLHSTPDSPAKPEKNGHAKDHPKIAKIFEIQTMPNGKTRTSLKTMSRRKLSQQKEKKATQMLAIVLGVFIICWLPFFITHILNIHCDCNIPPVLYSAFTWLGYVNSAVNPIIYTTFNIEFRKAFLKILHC
Sequence of DRD1 (P21728 whole entry): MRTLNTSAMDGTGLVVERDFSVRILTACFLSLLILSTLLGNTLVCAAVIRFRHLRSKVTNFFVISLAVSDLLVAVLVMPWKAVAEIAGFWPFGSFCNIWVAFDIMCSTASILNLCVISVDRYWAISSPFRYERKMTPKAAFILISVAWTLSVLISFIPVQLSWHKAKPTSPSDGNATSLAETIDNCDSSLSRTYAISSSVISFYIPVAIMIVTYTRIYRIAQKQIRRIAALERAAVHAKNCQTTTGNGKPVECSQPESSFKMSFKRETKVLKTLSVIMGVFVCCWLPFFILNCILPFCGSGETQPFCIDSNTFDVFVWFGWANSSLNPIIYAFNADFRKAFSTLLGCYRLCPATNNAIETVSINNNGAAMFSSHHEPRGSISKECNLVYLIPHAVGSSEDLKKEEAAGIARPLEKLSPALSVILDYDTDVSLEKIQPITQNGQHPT
Sequence of AVPR1A (P37288 whole entry): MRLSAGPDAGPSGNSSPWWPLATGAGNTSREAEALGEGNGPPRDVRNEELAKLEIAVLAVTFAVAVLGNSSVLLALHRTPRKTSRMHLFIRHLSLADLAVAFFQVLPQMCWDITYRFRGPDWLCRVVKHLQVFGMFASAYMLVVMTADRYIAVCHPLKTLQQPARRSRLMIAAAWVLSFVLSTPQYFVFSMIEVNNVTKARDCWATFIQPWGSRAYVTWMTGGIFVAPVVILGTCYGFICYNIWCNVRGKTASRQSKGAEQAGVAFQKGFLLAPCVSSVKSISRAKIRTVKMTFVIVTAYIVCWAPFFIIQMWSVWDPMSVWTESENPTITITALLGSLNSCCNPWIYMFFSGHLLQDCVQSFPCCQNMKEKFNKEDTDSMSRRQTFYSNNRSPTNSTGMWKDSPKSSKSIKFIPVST

SMILES | Head Twitch Response (HTR) incidence relative to vehicle [1] | EC50 [2] [µM] | IC50 [3] [µM] | IC50 [4] [µM] | EC50 [5] [µM] | IC50 ([6]; CHRM1, GPCR, ANT (antagonist)) [µM] | EC50 [7] [µM] | IC50 [8] [µM] | IC50 [9] [µM] | EC50 [10] [µM] | EC50 [11] [µM] | IC50 [12] [µM] | EC50 [13] [µM] | IC50 [14] [µM] | IC50 [15] [µM] | IC50 ([16]; BL (blocker)) [µM] | IC50 ([6]; CHRM1, GPCR, antagonist (ANT)) [µM] | IC50 ([16]; blocker (BL)) [µM]
CN(C)CCc1c[nH]c2cccc(OC(=O)c3ccc(Br)cc3)c12 [C(I)] | Elevated incidences of HTR | > 100 | 6.59 | > 100 | > 100 | 22.9 | > 100 | 48.9 | 24.5 | 83.4 | 2.14 | > 100 | > 100 | > 100 | 47 | > 100 |  | 
CN(C)CCc1c[nH]c2cccc(OC(=O)CC3CC3)c12 [C(IV)] | Elevated incidences of HTR | > 100 | 26.4 | > 100 | > 100 | > 100 | > 100 | > 100 | 32.9 | 1.4 | 0.027 | > 100 | 37.8 | 34.4 | > 100 | 67.9 |  | 
COc1ccc(C(=O)Oc2cccc3[nH]cc(CCN(C)C)c23)cc1 [C(V)] | Elevated incidences of HTR | > 100 | 14.9 | > 100 | > 100 |  | > 100 | > 100 | 12 | > 100 | 0.29 | > 100 | 51.5 | 76 | > 100 |  | > 100 | > 100
CN(C)CCc1c[nH]c2cccc(OC(=O)c3c(F)c(F)c(F)c(F)c3F)c12 [C(VI)] | Elevated incidences of HTR | 34.4 | 26.9 | > 100 | > 100 | > 100 | > 100 | > 100 | 51.6 | 1.09 | 0.1 | > 100 | 59.4 | 20.7 | > 100 | 34.3 |  | 
CN(C)CCc1c[nH]c2cccc(OC(=O)c3cccc4c3OCCO4)c12 [C(XX)] | Elevated incidences of HTR | > 100 | 5.21 | > 100 | > 100 | > 100 | > 100 | > 100 | 11.1 | 1.72 | 0.2 | > 100 | > 100 | > 100 | 15 | 14.7 |  | 
